Measurements reported in patent US9738612B2, “Methylacryloyl benzimidazolone derivative and anti-tumour use thereof” (SHANGHAI NATURE STANDARD R&D AND BIOTECH CO., LTD, priority 2014, dated 2017).
“Also recorded” adds a separate entry of the source.

Assays:
Type in all cases: cell-based
[1] = system: Akt phosphorylation at S473 site; test: ELISA (double antibody sandwich), Akt phosphorylation in IGF-1 stimulated A549 cells; details: for Inhibitory rate % (Akt phosphorylation): drug 1 h, then IGF-1 10 min, p-Akt (S473) ELISA; for Effect on Akt phosphorylation compared with positive control: ELISA, in words
Description: Establishment of ELISA screening method using a double antibody sandwich method: A549 cells (a lung cancer cell line, purchased from Chinese Academy of Sciences, Shanghai Institutes for Biological Sciences Cell Resource Center) were inoculated at certain densities in 12-well plates, and incubated at 37° C. in a carbon dioxide incubator overnight to let cells attach the plate wells. Meanwhile the Akt antibody was inoculated at a specific concentration in a highly-adsorbed microplate, and placed in a refrigerator at 4° C. The 12-well plates were washed with sterile PBS three times, then into which serum-free F12 was added, and incubated for 24 hours in a incubator. Then MK2206, Triciribine and FD series drugs were added into 12-well plates and worked for one hour, followed by adding 100 ng of IGF-1 and being stimulated for 10 minutes. The 12-well plates were washed with pre-cooled PBS three times, and 100 μl of RIPA lysis buffer was added into each well to lyse cells on ice for 20 minutes. The lysates were collected and added to the appropriate microplate (purchased from Santa Cruz biotechnology), which were shaken on ice. A p-Akt (S473) antibody (purchased Cell Signaling Technology, Inc.) was added into microplates. After shaking for a period of time, an anti-rabbit antibody (purchased from Cell Signaling Technology, Inc.) was added. The reaction was terminated with 2M sulfuric acid after TMB developed. Absorbance at 450 nm was measured on a microplate reader, and the inhibitory rate=[…], among which ODsample refers to the absorbance of the sample well, ODIGF refers the absorbance of the well with IGF only, OD—IGF refers the absorbance of the well withoutIGF.

SGC-7901 = test: Sulforhodamine B proliferation; details: SRB; for Inhibitory rate % (SGC-7901): 10 μM, 72 h; for inhibition at 10 µM: Homo sapiens, SGC-7901, 72 h, read-out: Inhibitory rate % (SGC-7901)
Description: (§1) At a certain density cells were seeded in 96-well plates, and adhered overnight. The medium was discarded after incubating cells with compounds to be tested for 72 h, then 100μL/well trichloroacetic acid (TCA) was added to fix cells at 4° C. for 2h. After that the fixing solution was discarded. Cells were gently washed 5 times with distilled water, dried at room temperature. Cells were stained with 4 mg/mL SRB staining solution (100 μL/well) at room temperature for 15min. The staining solution was discarded, and cells were washed five times with 1% acetic acid (HAC) and dried at room temperature. To the plate tris base buffer (10 mM) was added at 150 μL/well and placed at room temperature for 15min. The OD values were measured at 540 nm wavelength in a microplate reader. Inhibitory rate (%)=(OD valuecontrol wells−OD valuedrugs treated wells)/OD valuecontrol wells×100%.
(§2) The results were shown in Table 2, the working concentrations of MK2206 and compounds of FD series were 10 μM. As shown in this Table, PC-3 is a prostate cancer cell line purchased from Cell Resource Center of Shanghai Institutes for Biological Sciences, Chinese Academy of Sciences, A549 is a lung cancer cell line purchased from Cell Resource Center of Shanghai Institutes for Biological Sciences, Chinese Academy of Sciences, and SGC-7901 is a gastric cancer cell line purchased from Cell Resource Center of Shanghai Institutes for Biological Sciences, Chinese Academy of Sciences.

PC-3 = test: Sulforhodamine B proliferation; details: SRB; for Inhibitory rate % (PC-3) / inhibition at 10 µM: 72 h; for inhibition at 10 µM: Homo sapiens, PC-3, 72 h, read-out: Inhibitory rate % (PC-3)
Description: as §1, §2

A549 = test: Sulforhodamine B proliferation; details: SRB; for Inhibitory rate % (A549): 10 μM, 72 h; for inhibition at 10 µM: Homo sapiens, A549, 72 h, read-out: Inhibitory rate % (A549)
Description: as §1, §2

p-Akt (S473) = test: Western blot, p-Akt (S473) in IGF stimulated A549 cells; details: compound 1 h, IGF 10 min, FIG. 1, in words
Description: A549 cells were seeded at a density of 2×10^5 cells/well into 12-well plates, and adhered overnight. Then the medium was discarded and the plates were washed three times with normal saline. After that, fresh serum-free medium was added to starve cells for 24 hours, compounds to be tested were added to work for 1 h, then IGF-I was added to stimulated for 10 min, followed byadding a lysis buffer on ice to lyse for half an hour. The cell lysates were collected and centrifuged at 20000×g at 4° C. for 10min, then the supernatant was collected. Protein was quantified by MicroBCA protein quantification Assay kit, and the protein concentration was normalized. The supernatant was mixed with the 4×SDS sample buffer [200 mM Tris.Cl (pH 6.8), 400 mM DTT, 8% SDS, 0.4% bromophenol blue, 40% glycerol] and boiled for 15 min. After cooling at room temperature, aliquots were loaded on polyacrylamide gel, and electrophoresed in Tris-glycine electrophoretic buffer (25 mM Tris, 250 mM glycine, 0.1% SDS) at 80-120 V for about 2 h. Proteins were transferred from the gel to a nitrocellulose membrane by a semi-dry method. Transferring conditions: transfer buffer (39 mM glycine, 48 mM Tris base, 0.037% SDS, 20% methanol); transfer current 25 mA; transfer time 2 h. After transfer, Ponceau S staining was used to determine the transfer efficiency and the positions of protein bands on the nitrocellulose membranes. After labeling the membrane was blocked with a blocking solution containing 5% nonfat-dried milk [5% nonfat-dried milk, 20 mM Tris-HCl (pH 7.2-7.4), 150 mM NaCl, 0.1% (v/v) Tween 20] on a shaker at room temperature for 2 h. To the system were added specific primary antibodies and incubated overnight at 4° C. Then the membrane was washed with PBST solution [20 mM Tris-HCl (pH 7.2-7.4), 150 mM NaCl, 0.1% (v/v) Tween 20] at room temperature three times, 15 min/time. To the system were added Horseradish peroxidase-labeled secondary antibodies and incubated at room temperature on a shaker with gentle shaking for 2 h. After washing with PBST solution three times, the system was exposed, developed and fixed after SuperSignal West Dura Chemiluminescent Substrate (Pierce Inc, Rochford, IL) was used for color. The results were shown in FIG. 1, in which there were 12 lanes the band shade and size of which indicated the corresponding protein concentration levels. […] MK2206 was an Akt phosphorylation inhibitor developed by Merck, and was currently in phase II clinical trial, showing good therapeutic effects in a variety of tumors.

| Compound | Inhibitory rate % (Akt phosphorylation) [1] | Inhibitory rate % (SGC-7901) (SGC-7901) | Inhibitory rate % (PC-3) (PC-3; 10 μM) | Inhibitory rate % (A549) (A549) | inhibition at 10 µM (SGC-7901) | inhibition at 10 µM (PC-3) | inhibition at 10 µM (A549) | Effect on Akt phosphorylation level (p-Akt S473 band) (p-Akt (S473)) | Effect on Akt phosphorylation compared with positive control [1] | Inhibiting effect on PC-3 tumor cells (PTEN deficient) proliferation relative to other lines (PC-3; 10 μM, in words) |
| --- | --- | --- | --- | --- | --- | --- | --- | --- | --- | --- |
| C=C(C)n1c(=O)n(C(=O)CCC)c2ccc([N+](=O)[O-])cc21 [FD11] | 11% | 13.6% | 19.2% | 2.4% | – | – | – | – | – | – |
| C=C(C)n1c(=O)n(C(=O)CCCCCCC)c2ccc([N+](=O)[O-])cc21 [FD15] | 42% | – | – | – | 20.1% | 4.6% | 33.3% | – | – | – |
| C=C(C)C(=O)n1c(=O)n(C(=C)C)c2ccc([N+](=O)[O-])cc21 [FD8] | 3% | – | – | – | 28% | 13.4% | 2.8% | – | – | – |
| NC1(c2ccc(-c3nc4ccn5c(=O)[nH]nc5c4cc3-c3ccccc3)cc2)CCC1 [MK2206, reference compound] | 92% | 24.3% | 1.2% | 61.0% | – | – | – | significantly reduce the Akt phosphorylation level; also recorded: significantly inhibited the increase of Akt phosphorylation level stimulated by IGF | – | – |
| C=C(C)n1c(=O)n(C(=O)CCCCC)c2ccc([N+](=O)[O-])cc21 [FD13] | 56% | – | – | – | – | – | – | – | comparable effects with that of Triciribine | – |
| C=C(C)n1c(=O)n(C(=O)CC)c2cc([N+](=O)[O-])ccc21 [FD4] | 50% | – | – | – | 22% | 33.9% | 7.2% | – | comparable effects with that of Triciribine | – |
| C=C(C)n1c(=O)n(C(=O)CCCCCCC)c2cc([N+](=O)[O-])ccc21 [FD16] | 64% | – | – | – | 12.4% | 7.1% | 23.2% | – | – | – |
| C=C(C)n1c(=O)n(C(=O)c2ccccc2C)c2cc([N+](=O)[O-])ccc21 [FD18] | 42% | – | – | – | 44.2% | 32.1% | 11.5% | – | – | – |
| C=C(C)n1c(=O)n(C(=O)c2ccccc2C)c2ccc([N+](=O)[O-])cc21 [FD17] | 38% | – | – | – | 40.5% | 20% | 31.4% | – | – | – |
| C=C(C)n1c(=O)n(C(C)=O)c2ccc([N+](=O)[O-])cc21 [FD1] | 85% | 56.4% | – | 9.6% | – | 51.1% | – | significantly reduce the Akt phosphorylation level; also recorded: comparable effects to MK2206 | – | more significant |
| C=C(C)C(=O)n1c(=O)n(C(=C)C)c2cc([N+](=O)[O-])ccc21 [FD7] | 6% | – | – | – | 34.1% | 22.6% | 34.1% | – | – | – |
| C=C(C)n1c(=O)n(C(=O)CCCCC)c2cc([N+](=O)[O-])ccc21 [FD14] | 34% | – | – | – | 25.5% | 9% | 13.1% | – | – | – |
| C=C(C)n1c(=O)n(C(=O)CCC)c2ccc([N+](=O)[O-])cc21 [FD9] | 22% | – | – | 1.1% | 26.4% | 26.1% | – | – | – | – |
| C=C(C)n1c(=O)n(C(C)=O)c2ccc([N+](=O)[O-])cc21 [FD2] | 51% | 23.4% | 32.4% | 3.4% | – | – | – | – | comparable effects with that of Triciribine | – |
| C=C(C)n1c(=O)n(C(=O)CCC)c2cc([N+](=O)[O-])ccc21 [FD10] | 17% | – | – | – | 28.1% | 13.8% | 5.3% | – | – | – |
| C=CC(=O)n1c(=O)n(C(=C)C)c2cc([N+](=O)[O-])ccc21 [FD5] | 20% | – | – | – | 7.3% | 29.1% | 22.3% | – | – | – |
| C=CC(=O)n1c(=O)n(C(=C)C)c2ccc([N+](=O)[O-])cc21 [FD6] | 10% | – | – | – | 30.4% | 24.2% | 18.2% | – | – | – |
| C=C(C)n1c(=O)n(C(=O)CCC)c2cc([N+](=O)[O-])ccc21 [FD12] | 48% | 19.8% | 8.2% | 3.8% | – | – | – | – | comparable effects with that of Triciribine | – |
